US11622991B2, “Protocol for treatment of lupus nephritis” (Aurinia Pharmaceuticals Inc., priority 2017, dated 2023)

Test system: lupus nephritis
Assay: Predictability of week 48 partial remission from early reduction in UPCR (Tables 4-8)
Format: in vivo, human
Description: In the study reported in Example 1, the predictability of outcomes based on markers at early time points were determined.
This is important because it is undesirable to subject a patient to unnecessary treatment, even if the treatment is relatively safe.
PR is defined as at least 50% reduction in proteinuria (i.e. UPCR).
Sensitivity is defined as the probability that a subject showing PR at 48 weeks would have shown a favorable result with regard to the marker at the designated early time point. In the tables below, this is the ratio of the number of subjects with favorable marker results (early drop or normalization) to the total subjects with 48 week PR.
Specificity is defined as the probability that a subject not showing PR at 48 weeks would have shown an unfavorable result with regard to the marker at the designated early time point. In the tables below, this is the ratio of the number of subjects with unfavorable marker results (no early drop or no normalization) to the total subjects with no 48 week PR.
Positive predictive value is defined as the probability that a subject showing a favorable result with respect to the marker at an earlier time point would show PR at 48 weeks. In the tables below, this is the ratio of the number of subjects with favorable marker results who have 48 week PR to those with favorable marker results (early reduction or yes column).
Negative predictive value is defined as the probability that a subject showing an unfavorable result with respect to the marker at an earlier time point would not show PR at 48 weeks. In the tables below, this is the ratio of the number of subjects with unfavorable marker results who have no PR at 48 weeks to the total subjects with unfavorable marker results (no early reduction or no column).

[1] = 25% reduction in UPCR, Week 26, 23.7 mg BID
[2] = 25% reduction in UPCR, Week 26, 39.5 mg BID
[3] = 25% reduction in UPCR, Week 36, 23.7 mg BID
[4] = 25% reduction in UPCR, Week 36, 39.5 mg BID
[5] = 25% reduction in UPCR, Week 48, 23.7 mg BID
[6] = 25% reduction in UPCR, Week 48, 39.5 mg BID
[7] = early 30% reduction in UPCR, week 2, 39.5 mg BID
[8] = early 30% reduction in UPCR, week 6, 23.7 mg BID
[9] = early 30% reduction in UPCR, week 8, 23.7 mg BID
[10] = early 30% reduction in UPCR, week 8, 39.5 mg BID
[11] = early 30% reduction in UPCR, week 12, 39.5 mg BID
[12] = early 30% reduction in UPCR, week 16, 23.7 mg BID
[13] = early 30% reduction in UPCR, week 16, 39.5 mg BID
[14] = early 30% reduction in UPCR, week 20, 23.7 mg BID
[15] = early 30% reduction in UPCR, week 24, 23.7 mg BID
[16] = early 30% reduction in UPCR, week 24, 39.5 mg BID
[17] = early 30% reduction in UPCR, week 26, 23.7 mg BID
[18] = early 30% reduction in UPCR, week 26, 39.5 mg BID
[19] = early 30% reduction in UPCR, week 36, 23.7 mg BID

SMILES: C=C/C=C/C[C@@H](C)[C@@H](O)[C@H]1C(=O)N[C@@H](CC)C(=O)N(C)CC(=O)N(C)[C@@H](CC(C)C)C(=O)N[C@@H](C(C)C)C(=O)N(C)[C@@H](CC(C)C)C(=O)N[C@@H](C)C(=O)N[C@H](C)C(=O)N(C)[C@@H](CC(C)C)C(=O)N(C)[C@@H](CC(C)C)C(=O)N(C)[C@@H](C(C)C)C(=O)N1C [voclosporin]
- No Week 48 Partial Remission Early Drop [1]: 8
- No Week 48 Partial Remission No Early Drop [1]: 4
- No Week 48 Partial Remission No Early Drop [2]: 4
- Week 48 Partial Remission No Early Drop [2]: 1
- Early Reduction No [3]: 4
- No Week 48 Partial Remission Early Drop [3]: 10
- No Week 48 Partial Remission No Early Drop [3]: 3
- Week 48 Partial Remission No Early Drop [3]: 1
- Early Reduction No [4]: 8
- Week 48 Partial Remission No Early Drop [4]: 2
- Early Reduction No [5]: 2
- No Week 48 Partial Remission Early Drop [5]: 9
- No Week 48 Partial Remission No Early Drop [5]: 2
- Early Reduction No [6]: 9
- No Week 48 Partial Remission Early Drop [6]: 7
- No Week 48 Partial Remission No Early Drop [6]: 9
- No Week 48 Partial Remission Early Drop [7]: 11
- Week 48 Partial Remission Early Drop [7]: 31
- Week 48 Partial Remission No Early Drop [7]: 29
- No Week 48 Partial Remission Early Drop (early 30% reduction in UPCR, week 4, 23.7 mg BID): 11
- Week 48 Partial Remission No Early Drop (early 30% reduction in UPCR, week 4, 39.5 mg BID): 16
- No Week 48 Partial Remission Early Drop [8]: 10
- No Week 48 Partial Remission No Early Drop [8]: 8
- Week 48 Partial Remission No Early Drop [8]: 10
- Week 48 Partial Remission No Early Drop (early 30% reduction in UPCR, week 6, 39.5 mg BID): 16
- No Week 48 Partial Remission Early Drop [9]: 10
- No Week 48 Partial Remission No Early Drop [9]: 9
- Week 48 Partial Remission No Early Drop [9]: 7
- Early Reduction No [10]: 11
- No Week 48 Partial Remission No Early Drop [10]: 4
- Week 48 Partial Remission No Early Drop [10]: 7
- No Week 48 Partial Remission No Early Drop (early 30% reduction in UPCR, week 12, 23.7 mg BID): 7
- Early Reduction No [11]: 11
- No Week 48 Partial Remission No Early Drop [11]: 4
- Week 48 Partial Remission No Early Drop [11]: 7
- Early Reduction No [12]: 10
- No Week 48 Partial Remission Early Drop [12]: 11
- No Week 48 Partial Remission No Early Drop [12]: 7
- Week 48 Partial Remission No Early Drop [12]: 3
- No Week 48 Partial Remission No Early Drop [13]: 7
- Week 48 Partial Remission No Early Drop [13]: 8
- Early Reduction No [14]: 10
- No Week 48 Partial Remission Early Drop [14]: 9
- No Week 48 Partial Remission No Early Drop [14]: 7
- Week 48 Partial Remission No Early Drop [14]: 3
- Early Reduction No (early 30% reduction in UPCR, week 20, 39.5 mg BID): 10
- Early Reduction No [15]: 4
- No Week 48 Partial Remission Early Drop [15]: 11
- No Week 48 Partial Remission No Early Drop [15]: 3
- Week 48 Partial Remission No Early Drop [15]: 1
- No Week 48 Partial Remission No Early Drop [16]: 7
- Week 48 Partial Remission No Early Drop [16]: 9
- No Week 48 Partial Remission Early Drop [17]: 7
- Week 48 Partial Remission No Early Drop [17]: 1
- Early Reduction No [18]: 8
- No Week 48 Partial Remission Early Drop [18]: 11
- Week 48 Partial Remission No Early Drop [18]: 3
- Early Reduction No [19]: 4
- No Week 48 Partial Remission Early Drop [19]: 10
- No Week 48 Partial Remission No Early Drop [19]: 3
